The subject of series [1] is Plasmodium falciparum. The experiment in a line: Antimalarial activity against Plasmodium falciparum IPC5202. It is filed as functional, organism-based.
Series [2] has as its system Plasmodium falciparum. The experiment in a line: Antimalarial activity against Plasmodium falciparum IPC4912. It is filed as functional, organism-based.
For series [3], the system named is Plasmodium falciparum. The experiment in a line: Antimalarial activity against Plasmodium falciparum Dd2. It is filed as functional, organism-based.
For series [4], the system named is Plasmodium falciparum. The experiment in a line: Antimalarial activity against Plasmodium falciparum 3D7. It is filed as functional, organism-based.
Series [5] relates to Plasmodium falciparum. The experiment in a line: Antimalarial activity against Plasmodium falciparum FcB1 at 1 ng/ml. It is filed as functional.
The subject of series [6] is Plasmodium falciparum. The experiment in a line: Antimalarial activity against Plasmodium falciparum FcB1 at 100 ng/ml. Format: functional.
Series [7] has as its system Plasmodium falciparum. Nature of the series: Antimalarial activity against Plasmodium falciparum FcB1 at 10 ng/ml. Format: functional.
Series [8] relates to Plasmodium yoelii. The experiment in a line: Antimalarial activity against Plasmodium yoelii infected in po dosed mouse. Format: functional.
The subject of series [9] is Plasmodium yoelii. Nature of the series: Antimalarial activity against Plasmodium yoelii infected in sc dosed mouse. Format: functional.
The test system of series [10] is Plasmodium berghei. Nature of the series: Antimalarial activity against Plasmodium berghei infected in po dosed mouse. It is filed as functional.
The subject of series [11] is Plasmodium berghei. Nature of the series: Antimalarial activity against Plasmodium berghei infected in sc dosed mouse. Conditions: Plasmodium berghei. Format: functional.
Series [12] can be described thus: Toxicity in brine shrimp. Conditions: artemia salina.
The subject of series [13] is Plasmodium falciparum. The experiment in a line: Antimalarial activity against chloroquine resistant Plasmodium falciparum. It is filed as functional, organism-based.
Series [14] deals with Plasmodium falciparum. The experiment in a line: Antimalarial activity against ART-sensitive Plasmodium falciparum 3D7. Format: functional, organism-based.
In series [15] the test system is Plasmodium falciparum. Nature of the series: Antimalarial activity against Plasmodium falciparum W2. It is filed as functional, organism-based.
Series [16] has as its system Plasmodium falciparum. The experiment in a line: Antimalarial activity against ART-resistant Plasmodium falciparum Dd2 harboring R539T mutant. It is filed as functional, organism-based.
Series [17] has as its system Plasmodium falciparum. Nature of the series: Antimalarial activity against ART-resistant Plasmodium falciparum NF54 harboring […] mutant. Format: functional, organism-based.
Series [18] relates to Plasmodium falciparum. Nature of the series: Antimalarial activity against ART-sensitive Plasmodium falciparum NF54. It is filed as functional, organism-based.
Series [19] deals with Plasmodium falciparum. The experiment in a line: Antimalarial activity against Plasmodium falciparum D10. It is filed as functional, organism-based.
The subject of series [20] is Plasmodium falciparum. Nature of the series: Antimalarial activity against ART-sensitive Plasmodium falciparum W2. Format: functional, organism-based.
Series [21] deals with Plasmodium falciparum. The experiment in a line: Antimalarial activity against late blood stage Plasmodium falciparum NF54 gametocytes. Format: functional, organism-based.
Series [22] in a line: Cytotoxicity against human MRC5 cells. Format: toxicity, cell-based.
Series [23] concerns Plasmodium falciparum. The experiment in a line: Antimalarial activity against Plasmodium falciparum K1. It is filed as functional, organism-based.
Series [24] concerns Plasmodium berghei. The experiment in a line: Antimalarial activity against Plasmodium berghei N strain infected in mouse at 30 mg/kg, ip administered once daily for 4 days. It is filed as functional. To be noted: time 4 day.
Series [25] has as its system Plasmodium falciparum. Nature of the series: Antimalarial activity against chloroquine sensitive Plasmodium falciparum FCR-3. It is filed as functional, organism-based.
In series [26] the test system is Plasmodium berghei. The experiment in a line: Antimalarial activity against Plasmodium berghei N strain infected in mouse at 15 mg/kg, ip administered once daily for 4 days. Format: functional. To be noted: time 4 day.
In series [27] the test system is Plasmodium falciparum. Nature of the series: Antimalarial activity against Plasmodium falciparum RKL9. Format: functional, organism-based.
Series [28] concerns Plasmodium yoelii. Nature of the series: Antimalarial activity against Plasmodium yoelii infected in mouse. It is filed as functional.
For series [29], the system named is Plasmodium falciparum. Nature of the series: Antimalarial activity against chloroquine-sensitive Plasmodium falciparum NF54 infected in iv dosed mouse. Format: functional.
Series [30] deals with Plasmodium falciparum. The experiment in a line: Antimalarial activity against chloroquine-sensitive Plasmodium falciparum NF54. It is filed as functional, organism-based.
For series [31], the system named is Plasmodium falciparum. Nature of the series: Antimalarial activity against chloroquine-sensitive Plasmodium falciparum NF54 infected in po dosed mouse. It is filed as functional.

The structures appear in SMILES notation. pEC50, pIC50: −log10 of the molar value. Converted amounts (≈) assume the structure as drawn. Where only a bound is given, the exact number is not on record here.

From ChEMBL document CHEMBL5244272 (Eur J Med Chem, 2021) come the findings set out here.

Usually pIC50 stands for the negative decadic logarithm of the IC50, by convention in mol/L. Read a low pIC50 as a large IC50. The term LC50 denotes the concentration that kills 50% of the test population. A higher LC50 goes with lower toxicity. As a reminder, the ED50 is the dose at which the effect has come halfway, by size or by number of responders. A low value points to an effect at a small dose. As a reminder, the pEC50 is −log10 of the EC50, conventionally taken in molar units.

`C1C2CC3CC1CC(C2)[C@]31OO[C@@]2(CCC(Nc3nn[nH]n3)CC2)O1` (stereo partly drawn): the pIC50 with Plasmodium falciparum [1] was 8.21; in the series on Plasmodium falciparum [2] it was 8.17; in the series on Plasmodium falciparum [3], 8.60; in the series with Plasmodium falciparum [4] it was 8.55.
`CCCN(CC(=O)NC(=O)c1ccccc1)C(=O)CCN1C(=O)[C@H](C)[C@@H]2CC[C@@H](C)[C@@H]3CC[C@]4(C)OO[C@]32[C@H]1O4`: the values for the Activity in the series on Plasmodium falciparum [5], in the series with Plasmodium falciparum [6] and in the series on Plasmodium falciparum [7] were 100%, 100% and 99%, respectively.
In the case of `C[C@H]1[C@H](NC2CCN(c3ncccn3)CC2)O[C@@H]2O[C@]3(C)CC[C@H]4[C@H](C)CC[C@@H]1[C@@]24OO3`, the ED90 in the series with Plasmodium yoelii [8] is 2 mg/kg; in the series on Plasmodium yoelii [9] it was 0.52 mg/kg; in the series on Plasmodium berghei [10] it was 1.5 mg/kg; with Plasmodium berghei [11] it was 0.46 mg/kg.
In series [12], `C[C@H]1[C@H](OC(=O)CCCc2ccccc2)O[C@@H]2O[C@]3(C)CC[C@H]4[C@H](C)CC[C@@H]1[C@@]24OO3` displayed an LC50 of 139 µg/mL (≈ 323 µM). In the series on Plasmodium falciparum [4], the pIC50 was 8.27.
In the series with Plasmodium falciparum [13], `CC(=O)OCCC[C@]12O[C@H]([C@@H]3OO[C@H]1O3)[C@H](C)C(=O)[C@@H]2C` yielded an IC50 of 3 microg/cm3.
Turning to `O=P1(N(CCCl)CCCl)NCCCO1` (stereo not drawn) [CYCLOPHOSPHAMIDE ANHYDROUS], the LC50 in series [12] is 1.08 µg/mL (≈ 4.14 µM).
Regarding `C[C@H]1[C@H](N2CCS(=O)(=O)CC2)O[C@@H]2O[C@]3(C)CC[C@H]4[C@H](C)CC[C@@H]1[C@@]24OO3`, the pIC50 is 9.05 in the series with Plasmodium falciparum [14]; 9.05 with Plasmodium falciparum [15]; 8.85 in the series with Plasmodium falciparum [16]; 9.15 with Plasmodium falciparum [17]; 9.05 in the series with Plasmodium falciparum [18]; 8.96 with Plasmodium falciparum [19]. Moreover, the pIC50 was 9.30 with Plasmodium falciparum [20] and 7.37 in the series on Plasmodium falciparum [21].
Turning to `C[C@H]1C(=O)O[C@@H]2O[C@]3(C)CC[C@H]4N(Cc5ccccc5)CC[C@@H]1[C@@]24OO3`, the pIC50 in [22] was 3.79; with Plasmodium falciparum [23], 7.07; in the series with Plasmodium falciparum [25], 7.24. Besides, the Activity with Plasmodium berghei [24] turned out to be 95.6%; in the series on Plasmodium berghei [26], 69.1%.
On to `COc1cc(C2OOC3(C)C=CC(=O)CC3O2)ccc1O` (stereo not drawn), for which the pIC50 was 5.97 in the series with Plasmodium falciparum [27] and 5.91 with Plasmodium falciparum [4].
Turning to `C[C@H]1[C@@H](CCN2CCN(c3cccc(C(F)(F)F)c3)CC2)O[C@@H]2O[C@]3(C)CC[C@H]4[C@H](C)CC[C@@H]1[C@@]24OO3`, the ED90 in the series with Plasmodium yoelii [28] is less than 10 mg/kg.
In the series with Plasmodium falciparum [13], `COCCC[C@]12O[C@H]([C@@H]3OO[C@H]1O3)[C@H](C)C(=O)[C@@H]2C` came in with an IC50 of 2 microg/cm3.
Turning to `C[C@H]1[C@H](NC2CCN(Cc3ccccc3)CC2)O[C@@H]2O[C@]3(C)CC[C@H]4[C@H](C)CC[C@@H]1[C@@]24OO3`, the ED90 with Plasmodium yoelii [8] worked out at 3 mg/kg; with Plasmodium yoelii [9], 0.85 mg/kg; with Plasmodium berghei [10], 2.4 mg/kg; with Plasmodium berghei [11], 0.7 mg/kg.
For `Cn1nnc(NCC2CC[C@]3(CC2)OO[C@]2(O3)C3CC4CC(C3)CC2C4)n1` (stereo partly drawn), the pIC50 was 8.47 in the series with Plasmodium falciparum [1], 8.32 in the series on Plasmodium falciparum [2], 8.68 in the series on Plasmodium falciparum [3] and 8.54 in the series with Plasmodium falciparum [4].
`CC12C=CC(=O)CC1OC(c1c[nH]c3ccccc13)OO2` (stereo not drawn): the pIC50 in the series with Plasmodium falciparum [27] is 5.93; with Plasmodium falciparum [4] it was 5.91.
`C[C@H]1[C@@H](OC(=O)c2ccc3[nH]cnc3c2)O[C@@H]2O[C@]3(C)CC[C@H]4[C@H](C)CC[C@@H]1[C@@]24OO3` registered an LC50 in series [12] of 362 µg/mL (≈ 844 µM). In the series with Plasmodium falciparum [4], this molecule gave a pIC50 of 8.16.
On to `C[C@H]1[C@H](CC(COC(=O)c2cc[n+]([O-])cc2)C[C@H]2O[C@@H]3O[C@]4(C)CC[C@H]5[C@H](C)CC[C@@H]([C@H]2C)[C@@]35OO4)O[C@@H]2O[C@]3(C)CC[C@H]4[C@H](C)CC[C@@H]1[C@@]24OO3` (stereo partly drawn), for which the ED50 in the series on Plasmodium falciparum [29] was determined as 0.8 mg/kg; in the series on Plasmodium falciparum [31], 2 mg/kg. In addition, the pEC50 in the series on Plasmodium falciparum [30] was 9.28.
In turn, `CC1CC2CCC(C1)[C@@](C)(/C=C/[C@H](O)C(C)(C)O)OO2` (stereo partly drawn) displayed an ED50 with Plasmodium yoelii [28] of 50 mg/kg. For the same molecule, in the series with Plasmodium falciparum [23], the pIC50 was 6.94.
Turning to `C[C@H]1[C@H](NC2CCOCC2)O[C@@H]2O[C@]3(C)CC[C@H]4[C@H](C)CC[C@@H]1[C@@]24OO3`, the ED90 came out at 1.84 mg/kg in the series with Plasmodium yoelii [8], 1.25 mg/kg with Plasmodium yoelii [9], 1.3 mg/kg in the series with Plasmodium berghei [10] and 0.18 mg/kg in the series on Plasmodium berghei [11].
